Assay results reported in patent publication US8247211B2, “Glycopeptide antibiotics” (American Cyanamid Company, priority 2001, dated 2012).
≈ marks a conversion by molar mass, not a printed value.

Legend:
Assay in all cases: In vitro antibacterial evaluation: minimum inhibitory concentration (MIC), broth dilution method
Type in all cases: cell-based
Enterococcus sp. = details: broth dilution, 5×10^5 CFU/mL, 18 hours at 35° C.
In short: (§1)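 NCCLS M7-A2 broth dilution; Muller-Hinton II […]; 5×10^5 CFU/mL; 64-0.06 μg/mL. MIC = lowest concentration with no growth.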

Escherichia coli = details: 5×10^5 CFU/mL, 18 hours at 35° C.
In short: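 Susceptibility determined by NCCLS-recommended broth dilution (M7-A2), Muller-Hinton II […]. Concentration span 64-0.06 μg/mL, inoculum 5×10^5 CFU/mL. Isolates include strains resistant to methicillin, penicillin and/or vancomycin.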

Staphylococcus sp. = details: for MIC Staphylococcus aureus-SMITH (GC 4543): strain GC 4543; for MIC Staphylococcus haemolyticus (GC 4546): strain GC 4546; for MIC Coagulase Negative Staphylococcus (GC 4547): strain GC 4547; for MIC Coagulase Negative Staphylococcus (GC 4548): strain GC 4548; for MIC Coagulase Negative Staphylococcus (GC 4549): strain GC 4549; for MIC Coagulase Negative Staphylococcus (GC 4551): strain GC 4551; for MIC Coagulase Negative Staphylococcus (ID-3941): strain ID-3941
In short: as §1

Streptococcus sp. = details: broth dilution, 5×10^5 CFU/mL, 18 hours at 35° C.
In short: as §1

[1] = broth dilution, 18 hours at 35° C.

CC(c1ccccc1)C1NC(=O)CNC(=O)C(CO)NC(=O)C(C(O)C2CNC(=N)N2C2OC(CO)C(O)C(O)C2O)NC(=O)C(C(O)C2CNC(=N)N2)NC(=O)C(Cc2ccc(OC3OC(CO)C(OC4OC(COC(=O)OCc5ccccc5)C(O)C(O)C4O)C(O)C3O)cc2)NC1=O (stereo not drawn) [Example 101a, Cyclo[glycyl-β-methylphenylalanyl-O-[4-O-[6-O-[(phenylmethoxy)carbonyl]hexopyranosyl]-hexopyranosyl]tyrosyl-3-(2-iminoimidazolidin-4-yl)seryl-3-(3-hexopyranosyl-2-iminoimidazolidin-4-yl)serylseryl]]
MIC Enterococccus avium (GC 4558) (Enterococcus sp.): 16 µg/mL (≈ 11.2 µM)
MIC Enterococccus faecalis (ATCC 29212) (Enterococcus sp.): 16 µg/mL (≈ 11.2 µM)
MIC Enterococccus faecalis (GC 4552) (Enterococcus sp.): 16 µg/mL (≈ 11.2 µM)
MIC Enterococccus faecalis (GC 4553) (Enterococcus sp.): 16 µg/mL (≈ 11.2 µM)
MIC Enterococccus faecalis (GC 4554) (Enterococcus sp.): 16 µg/mL (≈ 11.2 µM)
MIC Enterococccus faecium (GC 2243) (Enterococcus sp.): 16 µg/mL (≈ 11.2 µM)
MIC Enterococccus faecium (GC 4556) (Enterococcus sp.): 16 µg/mL (≈ 11.2 µM)
MIC Enterococccus faecium (GC 4557) (Enterococcus sp.): 2 µg/mL (≈ 1.4 µM)
MIC Enterococcus faecalis (GC 2242) (Enterococcus sp.): 8 µg/mL (≈ 5.6 µM)
MIC Escherichia coli (ATCC 25922) (Escherichia coli): 64 µg/mL (≈ 44.8 µM)
MIC Staphylococcus aureus (ATCC 29213) (Staphylococcus sp.; strain ATCC 29213): 2 µg/mL (≈ 1.4 µM)
MIC Staphylococcus aureus (GC 1131) (Staphylococcus sp.; strain GC 1131): 4 µg/mL (≈ 2.8 µM)
MIC Staphylococcus aureus (GC 4541) (Staphylococcus sp.; strain GC 4541): 2 µg/mL (≈ 1.4 µM)
MIC Staphylococcus aureus (GC 4542) (Staphylococcus sp.; strain GC 4542): 4 µg/mL (≈ 2.8 µM)
MIC Staphylococcus aureus-SMITH (GC 4543) (Staphylococcus sp.; 18 hours at 35° C.): 8 µg/mL (≈ 5.6 µM)
MIC Staphylococcus aureus-SMITH (GC 4543) (Staphylococcus sp.; [1]): 8 µg/mL (≈ 5.6 µM)
MIC Staphylococcus aureus (GC 4544) (Staphylococcus sp.; strain GC 4544): 4 µg/mL (≈ 2.8 µM)
MIC Staphylococcus aureus (GC 4545) (Staphylococcus sp.; strain GC 4545): 4 µg/mL (≈ 2.8 µM)
MIC Staphylococcus haemolyticus (GC 4546) (Staphylococcus sp.): 1 µg/mL (≈ 0.7 µM)
MIC Staphylococcus haemolyticus (GC 4546) (Staphylococcus sp.; [1]): 1 µg/mL (≈ 0.7 µM)
MIC Coagulase Negative Staphylococcus (GC 4547) (Staphylococcus sp.): 1 µg/mL (≈ 0.7 µM)
MIC Coagulase Negative Staphylococcus (GC 4547) (Staphylococcus sp.; [1]): 1 µg/mL (≈ 0.7 µM)
MIC Coagulase Negative Staphylococcus (GC 4548) (Staphylococcus sp.): 1 µg/mL (≈ 0.7 µM)
MIC Coagulase Negative Staphylococcus (GC 4548) (Staphylococcus sp.; [1]): 1 µg/mL (≈ 0.7 µM)
MIC Coagulase Negative Staphylococcus (GC 4549) (Staphylococcus sp.): 1 µg/mL (≈ 0.7 µM)
MIC Coagulase Negative Staphylococcus (GC 4549) (Staphylococcus sp.; [1]): 1 µg/mL (≈ 0.7 µM)
MIC Coagulase Negative Staphylococcus (GC 4551) (Staphylococcus sp.): 2 µg/mL (≈ 1.4 µM)
MIC Coagulase Negative Staphylococcus (GC 4551) (Staphylococcus sp.; [1]): 2 µg/mL (≈ 1.4 µM)
MIC Coagulase Negative Staphylococcus (ID-3941) (Staphylococcus sp.): 1 µg/mL (≈ 0.7 µM)
MIC Coagulase Negative Staphylococcus (ID-3941) (Staphylococcus sp.; [1]): 1 µg/mL (≈ 0.7 µM)
MIC Streptococcus agalactiae (GC 4564) (Streptococcus sp.): 1 µg/mL (≈ 0.7 µM)
MIC Streptococcus pneumoniae (GC 4565) (Streptococcus sp.): <0.5 µg/mL
MIC Streptococcus pyogenes (ID-3187) (Streptococcus sp.): 1 µg/mL (≈ 0.7 µM)
